Article PMC9865645, “The Impact of N^ε-Acryloyllysine Piperazides on the Conformational Dynamics of Transglutaminase 2” (International Journal of Molecular Sciences, 2023)

Target: T1, self-produced hTGase 2 (Homo sapiens, UniProt P21980)
T1 construct: thrombin cleavage site (N); made in house; host or cells: E. coli BL21(DE3)
T1 sequence (P21980 1-687): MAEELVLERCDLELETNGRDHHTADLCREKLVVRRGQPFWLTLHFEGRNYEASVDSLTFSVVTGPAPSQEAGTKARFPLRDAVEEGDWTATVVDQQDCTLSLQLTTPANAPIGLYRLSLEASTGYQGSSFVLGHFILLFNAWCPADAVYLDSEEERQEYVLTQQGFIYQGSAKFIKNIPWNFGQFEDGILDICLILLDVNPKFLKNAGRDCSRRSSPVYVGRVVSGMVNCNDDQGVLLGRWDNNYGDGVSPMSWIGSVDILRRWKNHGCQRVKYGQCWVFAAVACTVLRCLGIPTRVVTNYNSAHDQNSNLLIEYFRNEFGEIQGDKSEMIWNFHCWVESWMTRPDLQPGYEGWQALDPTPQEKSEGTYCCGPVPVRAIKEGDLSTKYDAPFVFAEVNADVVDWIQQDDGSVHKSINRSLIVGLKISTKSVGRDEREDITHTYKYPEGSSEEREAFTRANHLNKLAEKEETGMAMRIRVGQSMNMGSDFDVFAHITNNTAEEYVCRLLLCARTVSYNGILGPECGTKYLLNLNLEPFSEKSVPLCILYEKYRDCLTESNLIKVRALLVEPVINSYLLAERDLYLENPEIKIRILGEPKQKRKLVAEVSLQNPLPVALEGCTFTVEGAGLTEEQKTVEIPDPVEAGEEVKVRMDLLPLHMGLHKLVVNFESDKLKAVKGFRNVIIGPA
Experiment: native (GTP-)PAGE: conformational species of hTGase 2
Conditions: pre-incubation with 500 µM GTPγS
Description: Figure 7 Influence of inhibitors 1–3 on the activity and conformation of hTGase 2 in the absence and presence of Ca^2+ or/and GTPγS. Native (GTP-)PAGE was performed on 7% separating gels. The gel and the running buffer contained either no GTP (A) or 50 µM GTP (B). Samples of 8.23 µM self-produced hTGase 2 were incubated for 30 min at 20 °C in 100 mM MOPS pH 8.0, 100 mM NaCl, 5.33% (v/v) glycerol with CaCl2, DMSO or inhibitors 1–3 (2.12% DMSO), and GTPγS as indicated. After adding native loading buffer, 6 µL of each sample containing 3 µg of hTGase 2 was loaded onto the gel. After the electrophoretic separation, gels were stained with Coomassie Brilliant Blue G250, scanned, and the protein bands were quantified (Figure S6 in Supplementary Materials). […]
Sodium dodecyl sulfate-PAGE (SDS-PAGE) and native PAGE were performed on 4% stacking and 7% separating gels using Laemmli buffers (60 min with 120 V, 300 mA and 30 W at room temperature) and the same buffers without SDS (80 min with 120 V, 50 mA and 30 W at 4 °C), respectively. […] Afterward, the gels were scanned using a LI-COR Odyssey Fc Imager (700 channel) and analyzed using Image Studio software version 5.2.5. Detected bands were quantified based on the general procedure published by Wagstaff et al. and as detailed in legends to Figures S5 and S6. […]

Nc1nc2c(ncn2[C@@H]2O[C@H](COP(=O)(O)OP(=O)(O)OP(O)(O)=S)[C@@H](O)[C@H]2O)c(=O)[nH]1 [GTPγS]
effect on migrating hTGase 2 species: favors the fast migrating hTGase 2 species
